In article PMC4121215, “Cytotoxic Constituents from the Rhizomes of Curcuma zedoaria” (The Scientific World Journal, 2014):
In brackets after ≈: the same amount, converted by molar mass. Like-named read-outs stand apart in the source and are kept apart here.

Key:
[1] = system: HUVEC (human umbilical vein endothelial cells); test: cells; format: cell-based; conditions: for IC50: Homo sapiens, HUVEC, isolated compounds, MTT, 72 h, normal cells
Protocol: (§1) The human cell lines MCF-7 (breast cancer), Ca Ski (cervical cancer), and HT-29 (colon cancer) were cultured as monolayer in RPMI 1640 growth media. HUVEC (human umbilical vein endothelial cells) and PC-3 (prostate cancer) cells were cultured in DMEM. All cells were purchased from the American Tissue Culture Collection (ATCC, USA) except for human umbilical vein endothelial cells (HUVEC) which were obtained from ScienCell Research Laboratories (Carlsbad, CA). All the media were supplemented with 10% v/v foetal bovine serum (FBS), 100 μg/mL penicillin/streptomycin, and 50 μg/mL amphotericin B. The cells were cultured in a 5% CO2 incubator at 37°C.
(§2) Cell viability was investigated using 3-(4, 5-dimethylthiazol-2-yl)-2, 5-diphenyltetrazolium bromide (MTT) assay. Cells were detached from the […] tissue culture flask when it achieved 80% confluency. The detached cells were pellet by centrifugation (1,000 rpm; 5 minutes). Cells (3.0 × 10^4 cells/mL) were seeded onto a 96-well microtiter plate (Nunc). The cells were incubated at 37°C CO2 incubator for 24 h to give adherent cells. The test compounds (1–100 μg/mL) were added onto the 96-well microtiter plate containing adherent cells. The untreated cells were incubated in 10% media containing 0.5% DMSO (without addition of any test compounds/extracts). This mixture was regarded as the negative control whereas doxorubicin as the positive control. The plates were incubated for 72 h at 37°C in a 5% CO2 incubator. After 72 h, the media were removed and 100 μL of fresh medium and 20 μL of MTT (Sigma, filter sterile, 5 mg/mL) were added to each well and further incubated for 4 hours (37°C) after which the media were substituted with 150 μL DMSO. The 96-well microtiter plates were then agitated at room temperature onto an incubator shaker to dissolve the formazan crystals. The absorbance (A) of the content of the plates was measured at 540 nm using a microplate reader. The percentage of inhibition of each test sample was calculated according to the following formula: Percentage of inhibition (%) = (A control − A sample)/A control × 100%. The average of three replicates was then obtained. The IC50 for each extract was extrapolated from the graphs of the percentage inhibition versus concentration of test agents. Cytotoxicity of each test agent is expressed as IC50 value. The IC50 value is the concentration of test agents that cause 50% inhibition or cell death, averaged from the three experiments. The selectivity index (SI) was also calculated as described by using the ratio between IC50 of the extract or compounds on normal cell lines (HUVEC) and IC50 of the tested extract or compounds on cancerous cell lines. Selectivity index (SI) values equal or greater than three were considered to have a high selectivity towards cancerous cells. An SI value denotes the selectivity of the sample to the tested cell lines.

[2] = system: MCF-7 (breast cancer); test: cells; format: cell-based; conditions: for IC50: Homo sapiens, MCF7, MTT, 72 h, mean ± SD of three replicates; for IC50 / SI (selectivity index) MCF-7: isolated compounds; for SI (selectivity index) MCF-7: IC50 HUVEC / IC50 MCF-7
Protocol: as §1, §2

[3] = system: PC-3 (prostate cancer); test: MTT cytotoxicity assay, PC-3; format: cell-based; conditions: for IC50: Homo sapiens, MTT, 72 h, mean ± SD of three replicates; for IC50 / SI (selectivity index) PC-3: isolated compounds; for SI (selectivity index) PC-3: IC50 HUVEC / IC50 PC-3; for antiproliferative/cytotoxic activity against PC-3 (in words): MTT assay
Protocol: as §1, §2

[4] = system: HT-29 (colon cancer); test: MTT cytotoxicity assay, HT-29; format: cell-based; conditions: for IC50: Homo sapiens, HT-29, MTT, 72 h, mean ± SD of three replicates; for IC50 / SI (selectivity index) HT-29: isolated compounds; for SI (selectivity index) HT-29: IC50 HUVEC / IC50 HT-29; for antiproliferative/cytotoxic activity against HT-29 (in words): MTT assay
Protocol: as §1, §2

[5] = system: Ca Ski; design: method as in PMID 21629182; conditions: zerumin A isolated from Curcuma mangga; cited from earlier work
[6] = system: MCF-7; design: method as in PMID 21629182; conditions: zerumin A isolated from Curcuma mangga; cited from earlier work
[7] = system: Ca Ski (cervical cancer); test: cells; format: cell-based; conditions: for IC50: Homo sapiens, Ca-Ski, MTT, 72 h, mean ± SD of three replicates; for IC50 / SI (selectivity index) Ca Ski: isolated compounds; for SI (selectivity index) Ca Ski: IC50 HUVEC / IC50 Ca Ski
Protocol: as §1, §2

Molecule | IC50 [1] [mg/L] | IC50 [2] [mg/L] | SI (selectivity index) MCF-7 [2] | IC50 [3] [mg/L] | SI (selectivity index) PC-3 [3] | IC50 [4] [mg/L] | SI (selectivity index) HT-29 [4] | antiproliferative/cytotoxic activity against PC-3 (in words) [3] | antiproliferative/cytotoxic activity against HT-29 (in words) [4] | IC50 Ca Ski [5] [mg/L] | IC50 MCF-7 [6] [mg/L] | IC50 [7] [mg/L] | SI (selectivity index) Ca Ski [7] | antiproliferative/cytotoxic activity against Ca Ski (in words) ([7]; MTT assay) | antiproliferative/cytotoxic activity against MCF-7 (in words) ([2]; MTT assay) | antiproliferative/cytotoxic activity against Ca Ski (in words) [7] | toxicity towards normal cells HUVEC (in words) [1] | antiproliferative/cytotoxic activity against MCF-7 (in words) [2]
C=C1CC(=O)C(=C(C)C)C[C@H]2[C@H]1CC[C@]2(C)O [Compound 14, isoprocurcumenol] | 45.1 ± 3 (≈ 192 µM) | 58.8 ± 4.2 (≈ 251 µM) | 0.8 | 37.4 ± 4.5 (≈ 160 µM) | 1.2 | 51.6 ± 3.9 (≈ 220 µM) | 0.9 | – | – | – | – | – | – | – | – | – | – | –
C=C1CC[C@H]2C(C)(C)CCC[C@]2(C)[C@H]1C/C=C(/C=O)CC(OC)OC [Compound 13, calcaratarin A] | 47.3 ± 4.2 (≈ 136 µM) | 62.5 ± 4.8 (≈ 179 µM) | 0.8 | 41.7 ± 3.4 (≈ 120 µM) | 1.1 | 48.3 ± 5.1 (≈ 139 µM) | 1.0 | – | – | – | – | – | – | – | – | – | – | –
Cc1cc2oc(=O)c(C)c-2cc2c1CC[C@@H]2C [Compound 19, gweicurculactone] | 71.7 ± 6.1 (≈ 314 µM) | 31.2 ± 3.2 (≈ 137 µM) | 2.3 | 38.3 ± 2.2 (≈ 168 µM) | 1.9 | 35.7 ± 5.8 (≈ 156 µM) | 2.0 | – | – | – | – | – | – | – | – | – | – | –
C=C(C)C(=O)C[C@]12OC(=O)C=C(C)[C@@H]1CC[C@@H]2C [Compound 18, curcuzedoalide] | 45.3 ± 7.8 (≈ 182 µM) | 49.8 ± 3.6 (≈ 201 µM) | 0.9 | 62.1 ± 8.1 (≈ 250 µM) | 0.7 | 58.2 ± 3.5 (≈ 234 µM) | 0.8 | – | – | – | – | – | – | – | – | – | – | –
CC1=CCCC2(C)OC2CC(=C(C)C)C(=O)C1 (centres unmarked) [Compound 12, germacrone-4,5-epoxide] | 48.4 ± 4.7 (≈ 207 µM) | 37.2 ± 4 (≈ 159 µM) | 1.3 | 43.9 ± 7.2 (≈ 187 µM) | 1.1 | 39.6 ± 4.6 (≈ 169 µM) | 1.2 | – | – | – | – | – | – | – | – | – | – | –
C=C1CC[C@H]2C(C)(C)CCC[C@]2(C)[C@H]1CC=C(C=O)CC(=O)O (stereo in doubt) [Compound 16, zerumin A] | 25.8 ± 1.9 (≈ 81 µM) | 22.3 ± 1.1 (≈ 70 µM) | 1.2 | 21.9 ± 1.6 (≈ 68.8 µM) | 1.2 | 17.4 ± 2 (≈ 54.6 µM) | 1.5 | moderate inhibitory activity | moderate inhibitory activity | 8.7 ± 0.29 (≈ 27.3 µM) | 14.2 ± 0.06 (≈ 44.6 µM) | – | – | – | – | – | – | –
C/C1=C\Cc2c(C)coc2C/C(C)=C/CC1 [Compound 11, furanodiene] | 40.9 ± 2.6 (≈ 189 µM) | 36.5 ± 2.6 (≈ 169 µM) | 1.1 | 39.5 ± 4.5 (≈ 183 µM) | 1.0 | 47.2 ± 4.4 (≈ 218 µM) | 0.9 | – | – | – | – | – | – | – | – | – | – | –
CC1=CC2(O)OC3(CC2=C(C)C)C(C)CCC13 (centres unmarked) [Compound 10, 9-isopropylidene-2,6-dimethyl-11-oxatricyclo[6.2.1.0^1,5]undec-6-en-8-ol] | 71.7 ± 6.1 (≈ 306 µM) | > 100 | < 0.7 | – | – | – | – | – | – | – | – | > 100 | < 0.7 | – | – | – | – | –
C=C1CC[C@H]2C(C)(C)CCC[C@]2(C)[C@H]1C/C=C(/C=O)CC=O [Compound 1, labda-8(17),12 diene-15,16 dial] | 45.3 ± 1.9 (≈ 150 µM) | 16.3 ± 0.2 (≈ 53.9 µM) | 2.8 | 26.3 ± 2.4 (≈ 87 µM) | 1.7 | 21.5 ± 3.1 (≈ 71.1 µM) | 2.1 | moderate inhibitory activity | moderate inhibitory activity | – | – | 14.5 ± 0.1 (≈ 47.9 µM) | 3.1 | moderate cytotoxicity | moderate cytotoxicity | – | – | –
CC1=CC2C(=C(C)C)C(=O)C=C(C)C2CC1 (centres unmarked) [Compound 4, comosone II] | – | > 100 | – | – | – | – | – | – | – | – | – | 76 ± 1.2 (≈ 351 µM) | – | – | – | – | – | –
CC(C)=C1C/C=C(\C)CC/C=C(\C)CC1=O [Compound 7, germacrone] | 73.7 ± 0.3 (≈ 338 µM) | 59.1 ± 2.9 (≈ 271 µM) | 1.2 | 55.2 ± 4.9 (≈ 253 µM) | 1.3 | 42.9 ± 4.1 (≈ 196 µM) | 1.7 | – | – | – | – | 39.3 ± 1.2 (≈ 180 µM) | 1.9 | – | – | – | – | –
CC1=CCCC2(C)OC2C(=O)c2c(C)coc2C1 (centres unmarked) [Compound 9, zederone] | 42.1 ± 2.7 (≈ 171 µM) | > 100 | 0.4 | 27 ± 1.9 (≈ 110 µM) | 1.6 | 19.1 ± 2.5 (≈ 77.5 µM) | 2.2 | moderate inhibitory activity | moderate inhibitory activity | – | – | > 100 | 0.4 | – | – | – | – | –
CC(C)=C1CC(=O)[C@@H](C)CC/C=C(\C)CC1=O [Compound 2, dehydrocurdione] | 24 ± 2.1 (≈ 102 µM) | 33 ± 1.1 (≈ 141 µM) | 0.7 | 19.1 ± 2.8 (≈ 81.5 µM) | 1.3 | 22.7 ± 2.4 (≈ 96.9 µM) | 1.1 | moderate inhibitory activity | moderate inhibitory activity | – | – | 21.7 ± 1.1 (≈ 92.6 µM) | 1.1 | – | – | – | – | –
CC(C)=C1C/C=C(\C)CC[C@H]2O[C@@]2(C)CC1=O [Compound 15, germacrone-1,10-epoxide] | 55.5 ± 1.6 (≈ 237 µM) | 61.2 ± 5.8 (≈ 261 µM) | 0.9 | 53.2 ± 4.9 (≈ 227 µM) | 1.0 | 72.8 ± 8.3 (≈ 311 µM) | 0.8 | – | – | – | – | – | – | – | – | – | – | –
COc1cccc2c1C(=O)c1c(O)c3c(c(O)c1C2=O)C[C@@](O)(C(=O)CO)C[C@@H]3O[C@H]1C[C@H](N)[C@H](O)[C@H](C)O1 [doxorubicin, reference compound] | 1.4 (≈ 2.58 µM) | 0.1 (≈ 0.184 µM) | – | – | – | – | – | – | – | – | – | 0.2 ± 1 (≈ 0.368 µM) | – | – | – | – | – | –
CC1=CC(=O)C(=C(C)C)C[C@H]2[C@H]1CC[C@]2(C)O [Compound 6, procurcumenol] | 16.3 ± 1 (≈ 69.6 µM) | 16.1 ± 2.2 (≈ 68.7 µM) | 1.0 | 13.3 ± 1.7 (≈ 56.8 µM) | 1.2 | 15.5 ± 2.3 (≈ 66.1 µM) | 1.1 | good cytotoxic effect | good cytotoxic effect | – | – | 62.4 ± 0.3 (≈ 266 µM) | 0.3 | – | – | – | – | –
C=C(C)[C@@H]1CC[C@H](C)[C@]12CC(=C(C)C)C(=O)O2 [Compound 17, curcumanolide A] | 21.7 ± 7 (≈ 92.6 µM) | 29.8 ± 3.1 (≈ 127 µM) | 0.7 | 18.8 ± 2.4 (≈ 80.2 µM) | 1.2 | 21.3 ± 3.2 (≈ 90.9 µM) | 1.0 | moderate inhibitory activity | moderate inhibitory activity | – | – | – | – | – | – | – | – | –
Hexane | – | – | – | – | – | – | – | – | – | – | – | – | – | – | – | high inhibitory activity | low toxicity | high inhibitory activity
